Results published in patent US11008549B2, “In vitro model for a tumor microenvironment” (HemoShear, LLC, priority 2013, dated 2021).
Like-named read-outs stand apart in the source and are kept apart here.

Columns and labels:
[1] = test system: cytochrome p450 1A/1B; assay: Cytochrome p450 1A/1B activity (P450-GLO) in rat hepatocytes after inducer; assay type: in vitro ADME; settings: controlled hemodynamics, 3-MC 0.1 μM, 48 hours, day 7
Method: (§1) Cytochrome Activity Assays: Hepatocytes were cultured in the cone-and-plate devices under static or controlled hemodynamic conditions for five days, and then treated with 0.1% dimethyl sulfoxide (DMSO) or known inducers of cytocrhome enzymesβ-methylcholanthrene and dexamethasone) for 48 hours. Porous membrane segments roughly 2 cm^2 in area were excised and transferred to standard 24-well plates alongside corresponding static cultures. The cells were incubated with 500 μl of hepatocyte media containing substrates from commercially available P450-GLO kits (kits for luminescent cytochrome p450 assays) at the manufacturer-recommended concentrations. After 4 hours, the media was transferred to 96-well plates and assayed for luminescent metabolites to reflect cytochrome p450 activity as per the manufacturer protocol.
(§2) To validate that the increase in metabolic genes and proteins translated to changes in metabolic activity, primary rat hepatocytes were cultured as described earlier in the cone-and-plate devices under controlled hemodynamics (0.6 dynes/cm^2) and in static collagen gel cultures. […]

[2] = test system: primary rat hepatocytes; assay: Gluconeogenesis assay (AMPLEX RED glucose in supernatant); assay type: cell-based; settings: 4 hours; for Effect (% Change) on glucose levels: insulin 2 nM or glucagon 100 nM; for decreased glucose levels by: insulin 2 nM
[3] = test system: primary rat hepatocytes; assay: CDFDA/CDF bile canalicular imaging (cholestatic changes); assay type: cell-based; settings: controlled hemodynamic conditions, 48 hours
Method: For imaging of the biliary activity at canalicular junctions, sections of the porous membrane of the TRANSWELL were washed with PBS and incubated with media containing 10 μM carboxy-2,7-dichlorofluorescein diacetate (CDFDA) for 10 minutes. Samples were then washed with PBS and placed on glass slide for confocal imaging.
The hepatocytes were washed with PBS and immediately incubated with the substrate 10 uM carboxy-2,7-dichlorofluorescein diacetate (CDFDA). The cells were imaged by confocal microscopy during a 20-min exposure to the nonfluorescent substrate CDFDA to allow for the hydrolysis of the substrate to the highly fluorescent Mrp-2 substrate carboxy-2,7-dichlorofluorescein (CDF) and its active secretion into the bile canalicular structures.

[4] = test system: primary rat hepatocytes; assay: Gene expression of oxidative stress-related genes, MRP3 and MRP4 in rat hepatocytes; assay type: cell-based; settings: controlled hemodynamic conditions, in vivo/clinical plasma Cmax concentrations
Method: (§3) RT-PCR: Changes in metabolic, toxic, and insulin/glucose/lipid pathway genes were assessed by extracting RNA from hepatocytes from devices run under healthy and steatotic conditions at the end of the culture period (7 or 14 days) and performing RT-PCR on this RNA. The [sequence] were removed from the devices and washed with PBS prior to scraping the cells off the porous membrane. Total RNA was isolated using a [sequence] RNA Mini Kit (a kit for purification of total RNA from cells) and reverse transcribed to cDNA using the ISCRIPT cDNA Synthesis Kit (a cDNA synthesis kit). Primers were designed for the metabolic genes CYP1A1, CYP1A2, CYP3A2, MDR, and GST as well as the insulin/glucose/lipid pathway genes GPAT, ACC1, IRS-2, PPAR-γ, SREBP, ChREBP, LXR, SCD1, CPT1.

[5] = test system: cytochrome p450 3A; assay: Cytochrome p450 3A activity (P450-GLO) in rat hepatocytes after inducer; assay type: in vitro ADME; settings: controlled hemodynamics, dexamethasone 02.5 μM, 48 hours, day 7
Method: as §1, §2

[6] = test system: primary rat hepatocytes; assay: Toxicity of inducer concentration to rat hepatocytes under controlled flow; assay type: cell-based; settings: 50 μM, concentration recommended for inducing static cultures
Method: As a result the concentration of the dexamethasone was decreased to 1 μg/ml in order to get an inductive response, a level that correlates well with plasma concentrations seen in vivo in rats.

[7] = cited from earlier work; for in vivo Cmax level achieved in humans: human; for Cmax: steady state plasma Cmax, patients, established therapeutic dosing
[8] = test system: A549 tumor cells; assay: Growth of A549 tumor cells in tri-cultures under tumor capillary hemodynamics (PICOGREEN cell number); assay type: cell-based; settings: drug at human Cmax, day seven, tri-culture without exogenous ECM, hemodynamic flow and transport, vs vehicle
Method: The vehicle control or drug was added to the inflow media for the endothelial cell layer and perfused into the upper volume. Tri-cultures were maintained in the presence of absence of drugs for up to seven days under hemodynamic flow and transport. Cell number was determined at day seven using the QUANT-IT PICOGREEN dsDNA Assay Kit according to the manufacturer's instructions (Life Technologies, Grand Island, N.Y.).

[9] = steady state plasma Cmax at therapeutic doses in mice, read-out: Mouse Cmax, cited from earlier work
[10] = test system: A549 cells; settings: static 2D cultures, cited from earlier work
[11] = test system: rat hepatocytes; assay: In vitro fatty liver model, total triglycerides; assay type: cell-based; settings: 1.5 μM, high insulin/glucose fatty liver media, controlled hemodynamics, day 7
Method: After 1 hour, the [sequence] were inverted and placed into cell culture dishes, and media was added (9 ml in the lower volume and 6 ml in the upper volume). After 24 hours (i.e., on day 2 of the experiments), the media was changed to maintenance media (the healthy or fatty liver media described above) and the Petri dishes were placed in the cone-and-plate hemodynamic flow device, and controlled hemodynamics were applied to the surface of the porous membrane of the [sequence] in the upper volume. […] The cells were cultured under controlled hemodynamics until day 7, when hepatocytes were examined using the assays described below.
At the end of the treatment period, cells were collected from the porous membranes by scraping with a rubber policeman and PBS, after which they were centrifuged (2,000×g for 10 minutes at 4° C.). The cell pellets were resuspended in 100 μl of cold diluted Standard Diluent from the triglyceride assay kit and sonicated 20 times at one second bursts. The cell suspension was then centrifuged at 10,000×g for 10 minutes at 4° C. The supernatant was removed and used for the assay as per the manufacturer's protocol and normalized to protein content from the same samples. […]

[12] = test system: rat hepatocytes; assay: In vitro fatty liver model, metabolic gene expression (RT-PCR); assay type: cell-based; settings: 1.5 μM, high insulin/glucose fatty liver media, controlled hemodynamics, day 7
Method: as §3
After 1 hour, the [sequence] were inverted and placed into cell culture dishes, and media was added (9 ml in the lower volume and 6 ml in the upper volume). After 24 hours (i.e., on day 2 of the experiments), the media was changed to maintenance media (the healthy or fatty liver media described above) and the Petri dishes were placed in the cone-and-plate hemodynamic flow device, and controlled hemodynamics were applied to the surface of the porous membrane of the [sequence] in the upper volume. […]

[13] = test system: primary human hepatocytes; settings: 72 h, 1 μM
Method: RT-PCR: Changes in metabolic, toxic, and insulin/glucose/lipid pathway genes were assessed by extracting RNA from hepatocytes from devices run under healthy and steatotic conditions at the end of the culture period (7 or 14 days) and performing RT-PCR on this RNA. The […] were removed from the devices and washed with PBS prior to scraping the cells off the porous membrane. Total RNA was isolated using a […] RNA Mini Kit (a kit for purification of total RNA from cells) and reverse transcribed to cDNA using the ISCRIPT cDNA Synthesis Kit (a cDNA synthesis kit). Primers were designed for the metabolic genes CYP1A1, CYP1A2, CYP3A2, MDR, and GST as well as the insulin/glucose/lipid pathway genes GPAT, ACC1, IRS-2, PPAR-γ, SREBP, ChREBP, LXR, SCD1, CPT1. Primer sequences are shown below in Table 3:
RNA expression was analyzed by real-time RT-PCR using IQ SYBR Green Supermix (a PCR reagent mixture for RT-PCR) and a CFX96 Real-Time System with C1000 Thermal Cycler (an RT-PCR detection system and thermal cycler). RNA data were normalized to endogenous expression of β2-microglobulin and reported as a relative quantity compared to healthy cultures.
Human genes assessed for metabolism and toxicity experiments included CYP1A1. CYP2A6, CYP2B6, CYP2C9, CYP2D6, CYP3A4, CYP3A5, GSTA1, UGT1A1, GSR, SORD, TXNRD1, and APEX1.
Cryopreserved primary human hepatocytes thawed and plated as described above were cultured in the cone-and-plate devices under controlled hemodynamics or were cultured under static conditions (controls) for 7 days before being exposed to different concentrations of chlorpromazine (0.1 μM, 1 μM, and 10 μM) or vehicle control for 72 hours. Live-dead staining was performed on the hepatocytes with ethidium-calcein stain. Hepatocytes were also incubated with MTT reagent for 1 hour to assess viability. RNA was extracted from additional segments and RT-PCR was performed to assess selected toxicity and metabolic genes.

[14] = test system: primary rat hepatocytes; settings: 4 h, 1 μM
Method: The hepatocytes were then washed with PBS and incubated with serum free hepatocyte medium with or without known toxic drug chlorpromazine (CPZ) at two different concentrations (1 μM and 10 μM) for 4 hours. Supernatants from the cells were collected and microRNA extraction was performed using the [sequence] serum/plasma kit (a kit for extracting microRNA, Qiagen). The cDNA was prepared by using the [sequence] RT kit (a kit for preparing cDNA, Qiagen) and samples quantified using the [sequence] SYBR GREEN PCR kit (a kit for quantifying cDNA, Qiagen), following the manufacturer's instructions.
Primary rat hepatocytes isolated and plated as described above were cultured in the cone-and-plate devices under controlled hemodynamic conditions or were cultured under static conditions (controls) for 7 days. The hepatocytes were washed with PBS and immediately incubated with either vehicle (distilled water) or chlorpromazine (1 μM) for 4 hours.

[15] = test system: primary human hepatocytes; settings: 72 h
Method: MTT Assay: To assess toxicity responses of human hepatocytes, the cells were plated and cultured in the cone-and-plate devices under hemodynamic conditions using the operating conditions described above or were cultured under static conditions (controls) for 7 days before being exposed to either 0.1% DMSO or known toxic drug chlorpromazine (0.1 μM, 1 μM and 10 μM) for 72 hours. Hepatocytes were then incubated with medium containing lmg/ml of MTT reagent (thiazolyl blue tetrazolium bromide) for 1 hour, following which the cells were lysed in DMSO to release the formazan blue dye formed. The solution was transferred to a 96 well plate and the absorbance was read at 595 nm.

[16] = No substrate, controlled hemodynamics
[17] = substrate Glycerol 2 mM, controlled hemodynamics
[18] = substrate Lactate/Pyruvate (20 mM/2 mM), controlled hemodynamics

Cc1ccc2cc3c(ccc4ccccc43)c3c2c1CC3 [3-MC, 3-Methyl Cholanthrene]
1A/1B response (cytochrome p450 activity normalized to ATP) [1]: 133.06

insulin
Effect (% Change) on glucose levels [2, 16]: −27%
decreased glucose levels by ([2]; absence of a substrate): 27%
Effect (% Change) on glucose levels [2, 17]: −38%
Effect (% Change) on glucose levels [2, 18]: −25%
decreased glucose levels by ([2]; substrate glycerol): 38%
decreased glucose levels by ([2]; substrates lactate and pyruvate): 25%

Cc1c(C)c2c(c(C)c1O)CCC(C)(COc1ccc(CC3SC(=O)NC3=O)cc1)O2 (centres unmarked) [troglitazone]
changes in bile canalicular pattern ([3]; 4 uM): changes in the canalicular pattern with visibly dilated canalicular structures
changes in bile canalicular pattern ([3]; 40 uM): much more prominent and extensive
gene expression associated with toxic response [4]: upregulation of oxidative stress-related genes and compensatory upregulation of MRP3 and MRP4 genes

C[C@@H]1C[C@H]2[C@@H]3CCC4=CC(=O)C=C[C@]4(C)[C@@]3(F)[C@@H](O)C[C@]2(C)[C@@]1(O)C(=O)CO [Dexamethasone, dexamethasone]
3A response (cytochrome p450 activity normalized to ATP) [5]: 57.53
toxicity in the controlled flow system [6]: toxic

C#Cc1cccc(Nc2ncnc3cc(OCCOC)c(OCCOC)cc23)c1 [erlotinib]
in vivo Cmax level achieved in humans [7]: 1000 ng/mL

NC1(c2ccc(-c3nc4ccn5c(=O)[nH]nc5c4cc3-c3ccccc3)cc2)CCC1 [MK2206]
inhibited A549 growth [8]: 44%
Cmax [9]: 540 nM
Cmax [7]: 160 nM
IC50 [10]: 3 µM

N.N.[Cl][Pt][Cl] [Cisplatin, cisplatin]
inhibited A549 growth [8]: 48%
Cmax ([9]; listed as cisplatin): > 10000 nM
Cmax [9]: > 10000 nM
Cmax [7]: 3000 nM
IC50 ([10]; listed as cisplatin): > 6 µM
IC50 [10]: > 6 µM

CCc1ccc(CCOc2ccc(CC3SC(=O)NC3=O)cc2)nc1 (centres unmarked) [pioglitazone]
total triglyceride content of hepatocytes [11]: reduced total triglyceride content
expression of metabolic genes such as Cyp3A2 [12]: restored the expression of metabolic genes

CN(C)CCCN1c2ccccc2Sc2ccc(Cl)cc21 [chlorpromazine]
upregulation of APEX nuclease (multifunctional DNA repair enzyme) [13]: 2.8 fold
upregulation of glutathione reductase (GSR) [13]: 8.3 fold
upregulation of sorbitol dehydrogenase (SORD) [13]: 6.9 fold
upregulation of thioredoxin reductase 1 (TXNRD1) [13]: 5.5 fold
miRNA 122 levels in the supernatants compared to vehicle controls [14]: did not cause any change in miRNA 122 levels
miRNA 122 released into supernatant, over vehicle controls [14]: 6 fold
toxicity ([15]; 1 μM): 30.3%
toxicity ([15]; 10 μM): 46.4%

N.N.O=C([O-])C1(C(=O)[O-])CCC1.[Pt+2] [carboplatin]
in vivo Cmax level achieved in humans [7]: 37000 ng/mL

Cn1cnc2c(F)c(Nc3ccc(Br)cc3Cl)c(C(=O)NOCCO)cc21 [AZD6244/Selumetinib, Selumetinib]
inhibited A549 growth [8]: 78%
Cmax [7]: 1400 nM
IC50 [10]: 5 µM

glucagon
Effect (% Change) on glucose levels [2, 16]: +51%
increased glucose levels by ([2]; absence of a substrate, glucagon 100 nM): 51%
Effect (% Change) on glucose levels [2, 17]: +15%
Effect (% Change) on glucose levels [2, 18]: +80%
increased glucose levels by further ([2]; substrate glycerol, glucagon 100 nM): 15%
increased glucose produced by ([2]; substrates lactate and pyruvate, glucagon 100 nM): 80%

OCC(O)CO [Glycerol, glycerol]
glucose produced by the hepatocytes increased in the presence of the substrate ([2]; glycerol 2 mM, controlled hemodynamics): 67%
